Source: publication PMC11968843, “Sulphostin-inspired N-phosphonopiperidones as selective covalent DPP8 and DPP9 inhibitors” (Nature Communications, 2025)
Several values for one entry are separate records, joined by “and”; a condition that tells them apart may be missing. Identical values can stand only once. Like-named read-outs stand apart in the source and are kept apart here.

Assays:
DPP9 [1] = biological target: T1, DPP9 (Homo sapiens, UniProt Q86TI2); assay: Time-dependent DPP9 inhibition kinetics (kobs, KI, kinact, kapp); format: biochemical; parameters: purchased Proteros Biostructures GmbH, Germany; settings: for kobs: n=3
T1 sequence (Q86TI2 whole entry): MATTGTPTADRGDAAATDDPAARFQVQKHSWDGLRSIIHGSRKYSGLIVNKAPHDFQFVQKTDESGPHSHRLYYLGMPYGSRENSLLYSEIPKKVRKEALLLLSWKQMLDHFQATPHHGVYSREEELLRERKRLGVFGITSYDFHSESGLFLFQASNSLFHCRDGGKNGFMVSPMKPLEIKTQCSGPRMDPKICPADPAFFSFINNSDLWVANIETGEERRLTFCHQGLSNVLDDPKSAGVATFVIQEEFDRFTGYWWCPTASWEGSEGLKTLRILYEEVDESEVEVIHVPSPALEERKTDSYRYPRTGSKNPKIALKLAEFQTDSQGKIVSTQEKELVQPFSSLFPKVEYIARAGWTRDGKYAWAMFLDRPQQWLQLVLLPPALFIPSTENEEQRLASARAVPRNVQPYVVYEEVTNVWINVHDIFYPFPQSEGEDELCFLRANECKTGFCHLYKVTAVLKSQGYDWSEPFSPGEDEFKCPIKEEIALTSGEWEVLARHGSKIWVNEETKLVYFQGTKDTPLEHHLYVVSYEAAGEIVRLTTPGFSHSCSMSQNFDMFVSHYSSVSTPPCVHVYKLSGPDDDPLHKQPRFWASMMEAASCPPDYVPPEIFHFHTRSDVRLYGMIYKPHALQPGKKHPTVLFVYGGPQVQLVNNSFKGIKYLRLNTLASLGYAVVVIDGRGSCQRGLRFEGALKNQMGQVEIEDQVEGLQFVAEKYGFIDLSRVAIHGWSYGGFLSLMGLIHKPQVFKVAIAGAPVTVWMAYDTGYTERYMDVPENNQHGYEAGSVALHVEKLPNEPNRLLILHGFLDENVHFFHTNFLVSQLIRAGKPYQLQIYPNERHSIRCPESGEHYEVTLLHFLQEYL
Description: (§1) To calculate the reaction rate of covalent bond formation between DPP proteins and inhibitor, kinact, KI and kapp was determined as previously described[30],[51]. Therefore, 250 µM GP-AMC was added simultaneously with a serial dilution of the inhibitor to 10 nM enzyme. Enzyme activity was measured for a maximum of 120 min at 30 °C, and fluorescence intensities were then plotted against time. Data was fitted to the following equation: Y=(vi/kobs)*(1−exp(−kobs*X)) using Graph-Pad Prism v10.2.3. The obtained pseudo-first-order rate constant was used to determine the maximum enzyme inhibition rate (kinact) and binding affinity (KI) by fitting the plot of kobs against inhibitor concentration to the following equation: Y=kinact/1+(KI/[I]) . The efficiency of covalent bond formation (kapp) was calculated by the ratio of kinact/KI. All measurements were performed in triplicates and error bars represent standard errors of the fit.

DPP8 [2] = biological target: T2, DPP8 (Homo sapiens, UniProt Q6V1X1); assay: Time-dependent DPP8 inhibition kinetics (kobs, KI, kinact, kapp); format: biochemical; settings: for kobs: n=3
T2 construct: purchased Proteros Biostructures GmbH, Germany
T2 sequence (Q6V1X1 whole entry): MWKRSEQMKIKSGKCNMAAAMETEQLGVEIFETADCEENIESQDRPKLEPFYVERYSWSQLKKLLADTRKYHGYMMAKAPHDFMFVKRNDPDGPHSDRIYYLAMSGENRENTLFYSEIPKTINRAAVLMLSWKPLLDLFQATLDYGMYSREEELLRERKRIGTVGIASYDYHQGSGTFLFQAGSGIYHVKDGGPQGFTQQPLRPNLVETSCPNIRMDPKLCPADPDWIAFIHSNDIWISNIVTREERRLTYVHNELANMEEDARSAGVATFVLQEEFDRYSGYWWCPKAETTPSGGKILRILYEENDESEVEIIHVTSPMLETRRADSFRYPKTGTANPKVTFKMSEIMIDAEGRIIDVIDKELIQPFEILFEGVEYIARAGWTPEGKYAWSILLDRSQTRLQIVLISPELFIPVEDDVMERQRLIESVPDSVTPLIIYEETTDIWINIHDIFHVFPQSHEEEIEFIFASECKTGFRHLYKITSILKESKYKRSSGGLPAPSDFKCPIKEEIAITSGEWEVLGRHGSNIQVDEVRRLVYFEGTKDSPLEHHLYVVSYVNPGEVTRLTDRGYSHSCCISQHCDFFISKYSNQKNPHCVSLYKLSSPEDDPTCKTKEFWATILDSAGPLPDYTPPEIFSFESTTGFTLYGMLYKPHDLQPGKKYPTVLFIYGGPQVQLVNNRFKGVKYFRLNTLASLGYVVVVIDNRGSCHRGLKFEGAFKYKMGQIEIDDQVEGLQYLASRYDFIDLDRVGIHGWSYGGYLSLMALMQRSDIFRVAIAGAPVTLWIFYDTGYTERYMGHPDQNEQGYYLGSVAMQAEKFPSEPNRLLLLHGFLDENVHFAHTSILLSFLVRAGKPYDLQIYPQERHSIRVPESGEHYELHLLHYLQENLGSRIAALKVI
Description: as §1

DPP9 [3] = biological target: T1, DPP9; assay: biochemical; format: biochemical; parameters: purchased Proteros Biostructures GmbH, Germany; settings: for DPP9 activity [%]: replicates
Description: (§2) Enzyme activity of DPP4, DPP8, DPP9 (Proteros Biostructures GmbH, Germany) and PREP (Sigma Aldrich, USA) was determined by measuring the initial velocity of AMC release from the fluorogenic substrate GP-AMC (Sigma Aldrich, USA) using a Tecan Spark® 10 M multimode microplate reader (Tecan Group Ltd., Switzerland) in activity buffer (20 mM HEPES/KOH pH 7.3, 110 mM potassium acetate, 2 mM Mg acetate, 0.5 mM EGTA, 0.02% Tween 20, supplemented with 1 mM DTT) and a final volume of 20 μL for maximal 60 min at 30 °C. Prior to activity measurement, 10 nM enzyme was incubated for 45 min at 30 °C and gentle shaking with the inhibitor compounds in concentrations ranging from 0 to 100 μM. The compounds were dissolved in DMSO and diluted in activity buffer (final DMSO concentration: 1%). […] IC50 values were calculated using Graph-Pad Prism v10.2.3 using the equation: [Inhibitor] vs. response—Variable slope (four parameters). All measurements were performed in triplicates and error bars represent standard errors of the fit.

DPP8 [4] = biological target: T2, DPP8; assay: biochemical; format: biochemical; settings: for DPP8 activity [%]: replicates
Description: as §2

DPP4 [5] = biological target: T3, DPP4 (Homo sapiens, UniProt P27487); assay: biochemical; format: biochemical; settings: for DPP4 activity [%]: replicates
T3 construct: purchased Proteros Biostructures GmbH, Germany
T3 sequence (P27487 whole entry): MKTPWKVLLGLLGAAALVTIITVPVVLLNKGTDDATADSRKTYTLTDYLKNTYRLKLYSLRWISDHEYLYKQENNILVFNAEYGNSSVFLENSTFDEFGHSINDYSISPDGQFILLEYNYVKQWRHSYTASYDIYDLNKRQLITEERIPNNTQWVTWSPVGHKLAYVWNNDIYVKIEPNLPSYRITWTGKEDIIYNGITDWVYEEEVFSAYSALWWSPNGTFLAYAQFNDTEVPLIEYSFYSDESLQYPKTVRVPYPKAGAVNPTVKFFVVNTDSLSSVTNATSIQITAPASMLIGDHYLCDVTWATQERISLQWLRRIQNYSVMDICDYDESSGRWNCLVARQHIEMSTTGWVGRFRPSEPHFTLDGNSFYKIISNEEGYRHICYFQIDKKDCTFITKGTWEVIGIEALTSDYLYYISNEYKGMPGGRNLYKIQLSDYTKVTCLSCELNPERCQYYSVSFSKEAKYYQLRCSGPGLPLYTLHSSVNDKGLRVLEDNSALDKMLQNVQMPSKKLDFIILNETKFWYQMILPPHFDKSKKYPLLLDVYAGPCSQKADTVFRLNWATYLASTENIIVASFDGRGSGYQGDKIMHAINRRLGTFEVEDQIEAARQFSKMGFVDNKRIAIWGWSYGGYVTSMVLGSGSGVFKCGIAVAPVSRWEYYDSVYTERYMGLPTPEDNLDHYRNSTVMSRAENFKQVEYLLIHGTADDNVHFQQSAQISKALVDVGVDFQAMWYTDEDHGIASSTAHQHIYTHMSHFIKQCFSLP
Description: as §2

[6] = biological target: T4, HEK293 cell lysates (proteome-wide targets of probe 9) (Homo sapiens, UniProt Q02790); assay: Competitive ABPP / direct target identification with alkyne probe 9 in HEK293 cell lysates; format: binding, H. sapiens; settings: protein FKBP4
T4 construct: endogenous in cells; host or cells: HEK293 cell lysate
T4 sequence (Q02790 whole entry): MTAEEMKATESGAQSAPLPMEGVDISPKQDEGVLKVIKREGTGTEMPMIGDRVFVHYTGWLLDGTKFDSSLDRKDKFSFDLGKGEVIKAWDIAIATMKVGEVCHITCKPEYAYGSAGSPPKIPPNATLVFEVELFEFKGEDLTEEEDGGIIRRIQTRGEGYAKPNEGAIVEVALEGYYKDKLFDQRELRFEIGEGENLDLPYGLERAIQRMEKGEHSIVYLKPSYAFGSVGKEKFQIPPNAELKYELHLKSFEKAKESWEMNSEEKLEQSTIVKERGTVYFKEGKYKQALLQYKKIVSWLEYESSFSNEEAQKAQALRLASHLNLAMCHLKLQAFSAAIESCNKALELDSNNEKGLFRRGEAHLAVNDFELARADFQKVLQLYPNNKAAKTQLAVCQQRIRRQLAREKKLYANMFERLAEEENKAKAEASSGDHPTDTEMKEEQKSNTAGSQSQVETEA

[7] = biological target: T5, HEK293 cell lysates (proteome-wide targets of probe 9) (Homo sapiens, UniProt Q14974); assay: as above; format: binding, H. sapiens; settings: protein KPNB1
T5 construct: endogenous in cells; host or cells: HEK293 cell lysate
T5 sequence (Q14974 whole entry): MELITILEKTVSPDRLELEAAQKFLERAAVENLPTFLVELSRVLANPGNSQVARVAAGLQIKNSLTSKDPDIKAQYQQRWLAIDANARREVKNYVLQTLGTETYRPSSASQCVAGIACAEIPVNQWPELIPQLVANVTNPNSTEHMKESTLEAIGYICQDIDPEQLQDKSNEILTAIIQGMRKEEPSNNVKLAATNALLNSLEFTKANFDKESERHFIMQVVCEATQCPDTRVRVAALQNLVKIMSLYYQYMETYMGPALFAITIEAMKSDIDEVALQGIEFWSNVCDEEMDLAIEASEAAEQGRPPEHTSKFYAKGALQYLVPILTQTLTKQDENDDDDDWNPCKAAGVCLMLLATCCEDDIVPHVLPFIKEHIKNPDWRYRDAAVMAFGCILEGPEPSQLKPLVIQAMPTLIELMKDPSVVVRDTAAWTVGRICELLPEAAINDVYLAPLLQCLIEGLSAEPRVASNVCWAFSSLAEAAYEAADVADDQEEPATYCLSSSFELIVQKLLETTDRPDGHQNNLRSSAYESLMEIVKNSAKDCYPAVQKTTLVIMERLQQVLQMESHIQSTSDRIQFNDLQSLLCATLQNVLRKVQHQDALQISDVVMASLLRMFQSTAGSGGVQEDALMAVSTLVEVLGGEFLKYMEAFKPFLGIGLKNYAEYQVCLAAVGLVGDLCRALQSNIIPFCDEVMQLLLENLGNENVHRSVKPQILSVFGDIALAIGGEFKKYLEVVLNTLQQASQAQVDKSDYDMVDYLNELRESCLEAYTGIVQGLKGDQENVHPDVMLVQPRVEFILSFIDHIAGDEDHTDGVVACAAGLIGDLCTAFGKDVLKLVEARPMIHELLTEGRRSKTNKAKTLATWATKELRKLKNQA

[8] = biological target: T6, HEK293 cell lysates (proteome-wide targets of probe 9) (Homo sapiens, UniProt Q99832); assay: as above; format: binding, H. sapiens; settings: protein CCT7
T6 construct: endogenous in cells; host or cells: HEK293 cell lysate
T6 sequence (Q99832 whole entry): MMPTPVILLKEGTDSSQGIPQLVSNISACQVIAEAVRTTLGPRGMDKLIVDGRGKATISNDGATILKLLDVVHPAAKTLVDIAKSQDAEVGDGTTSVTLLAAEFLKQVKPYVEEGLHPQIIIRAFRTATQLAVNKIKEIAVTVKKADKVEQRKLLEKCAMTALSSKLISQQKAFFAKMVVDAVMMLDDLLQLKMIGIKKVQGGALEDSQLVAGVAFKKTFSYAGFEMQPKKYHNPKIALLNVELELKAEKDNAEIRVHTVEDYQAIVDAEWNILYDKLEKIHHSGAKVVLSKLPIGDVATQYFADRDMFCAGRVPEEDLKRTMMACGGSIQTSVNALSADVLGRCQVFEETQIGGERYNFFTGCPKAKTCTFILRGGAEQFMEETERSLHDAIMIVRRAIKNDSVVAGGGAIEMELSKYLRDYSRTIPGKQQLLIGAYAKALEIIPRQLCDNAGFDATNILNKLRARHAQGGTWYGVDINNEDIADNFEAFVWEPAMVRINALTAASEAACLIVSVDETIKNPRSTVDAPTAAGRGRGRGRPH

[9] = biological target: T7, HEK293 cell lysates (proteome-wide targets of probe 9) (Homo sapiens, UniProt P25398); assay: as above; format: binding, H. sapiens; settings: protein RPS12
T7 construct: endogenous in cells; host or cells: HEK293 cell lysate

[10] = biological target: T8, HEK293 cell lysates (proteome-wide targets of probe 9) (Homo sapiens, UniProt P37802); assay: as above; format: binding, H. sapiens; settings: protein TAGLN2
T8 construct: endogenous in cells; host or cells: HEK293 cell lysate
T8 sequence (P37802 whole entry): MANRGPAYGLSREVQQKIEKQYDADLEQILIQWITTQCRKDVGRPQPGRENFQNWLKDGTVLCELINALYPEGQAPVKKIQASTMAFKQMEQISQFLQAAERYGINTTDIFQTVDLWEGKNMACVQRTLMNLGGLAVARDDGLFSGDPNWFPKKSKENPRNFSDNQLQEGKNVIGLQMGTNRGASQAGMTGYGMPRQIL

DPP4 [11] = biological target: T3, DPP4; format: biochemical; settings: for kobs: n=3
Description: as §1, with “Therefore, 250 µM GP-AMC was added simultaneously with a serial dilution of the inhibitor to 10 nM enzyme.” left out

[12] = irreversible inhibition, fit of kobs vs inhibitor concentration

C#CCCCP(=O)(OCC)N1CCCC(N)C1=O.O=C(O)C(F)(F)F (mixture of isomers) [Compound 9]
kapp (DPP9 [1]; DPP9): 68.49 M⁻¹ s⁻¹
kinact best fit (DPP9 [1]; DPP9): 0.0003473 s⁻¹
kobs (DPP9 [1]; DPP9, c 312.5 nM): 2.92e-05 s⁻¹
kobs (DPP9 [1]; DPP9, c 625 nM): 4.78e-05 s⁻¹
kobs (DPP9 [1]; DPP9, c 2500 nM): 0.000103 s⁻¹
KI (inactivation) (DPP9 [1]; DPP9, fit of kobs vs inhibitor concentration, read-out: KI best fit): 5.07 µM
KI (inactivation) (DPP9 [1]; DPP9, read-out: KI best fit): 5.07 µM
kinact DPP9 (DPP9 [1]; [12]): 0.00035 ± 0.00007 s⁻¹
KI (inactivation) (DPP9 [1]; irreversible inhibition, fit of kobs vs inhibitor concentration, read-out: KI DPP9): 5.07 µM
kapp DPP9 (DPP9 [1]; ratio kinact/KI): 68 M⁻¹ s⁻¹
kapp (DPP8 [2]; DPP8): 170.93 M⁻¹ s⁻¹
kinact best fit (DPP8 [2]; DPP8): 0.0005333 s⁻¹
kobs (DPP8 [2]; DPP8, c 312.5 nM): 5.77e-05 s⁻¹
kobs (DPP8 [2]; DPP8, c 625 nM): 8.71e-05 s⁻¹
kobs (DPP8 [2]; DPP8, c 2500 nM): 0.000239 s⁻¹
KI (inactivation) (DPP8 [2]; DPP8, fit of kobs vs inhibitor concentration, read-out: KI best fit): 3.12 µM
KI (inactivation) (DPP8 [2]; DPP8, read-out: KI best fit): 3.12 µM
kinact DPP8 (DPP8 [2]; [12]): 0.00053 ± 0.00004 s⁻¹
KI (inactivation) (DPP8 [2]; irreversible inhibition, fit of kobs vs inhibitor concentration, read-out: KI DPP8): 3.12 µM
kapp DPP8 (DPP8 [2]; ratio kinact/KI): 171 M⁻¹ s⁻¹
IC50 (DPP9 [3]; GP-AMC 250 µM, 10 nM enzyme, 45 min pre-incubation at 30 °C, read-out: IC50 DPP9): 1.57 ± 0.092 µM
DPP9 activity [%] (DPP9 [3]; c 156.25 nM): 96.2584% and 100.319% and 101.85%
DPP9 activity [%] (DPP9 [3]; c 312.5 nM): 100.858% and 91.3501% and 92.0123%
DPP9 activity [%] (DPP9 [3]; c 625 nM): 84.7331% and 76.9427% and 84.4618%
DPP9 activity [%] (DPP9 [3]; c 1562.5 nM): 49.8961% and 58.6041% and 49.6299%
DPP9 activity [%] (DPP9 [3]; c 2500 nM): 31.5472% and 27.5156% and 32.2809%
DPP9 activity [%] (DPP9 [3]; c 3125 nM): 24.6772% and 31.33% and 43.1829%
DPP9 activity [%] (DPP9 [3]; c 5000 nM): 13.8796% and 12.6206% and 14.7121%
DPP9 activity [%] (DPP9 [3]; c 6250 nM): 10.217% and 12.6398% and 8.944%
DPP9 activity [%] (DPP9 [3]; c 10000 nM): 3.977% and 3.748% and 3.468%
DPP9 activity [%] (DPP9 [3]; c 25000 nM): 1.6052% and 1.507% and 1.185%
DPP9 activity [%] (DPP9 [3]; c 50000 nM): 0.4873% and 0.1919% and 0.2191%
DPP9 activity [%] (DPP9 [3]; c 100000 nM): -0.1705% and -0.1127% and 0.03998%
potency relative to C8-alkyne compound 10 (DPP8 [4]; DPP8/9 IC50, fold more potent): about 20 fold
IC50 (DPP8 [4]; GP-AMC 250 µM, 10 nM enzyme, 45 min pre-incubation at 30 °C, read-out: IC50 DPP8): 0.668 ± 0.043 µM
DPP8 activity [%] (DPP8 [4]; c 15.625 nM): 88.0116% and 95.2585% and 92.8653%
DPP8 activity [%] (DPP8 [4]; c 31.25 nM): 98.7519% and 93.0125% and 99.7656%
DPP8 activity [%] (DPP8 [4]; c 62.5 nM): 100.514% and 96.8883% and 98.9251%
DPP8 activity [%] (DPP8 [4]; c 250 nM): 89.8086% and 92.0804% and 74.9743%
DPP8 activity [%] (DPP8 [4]; c 312.5 nM): 76.3712% and 75.8504% and 60.7309%
DPP8 activity [%] (DPP8 [4]; c 500 nM): 58.2452% and 66.831% and 55.6678%
DPP8 activity [%] (DPP8 [4]; c 625 nM): 43.0971% and 49.0696% and 43.2225%
DPP8 activity [%] (DPP8 [4]; c 1000 nM): 45.7318% and 41.4388% and 38.9079%
DPP8 activity [%] (DPP8 [4]; c 1562.5 nM): 30.9827% and 31.9714% and 36.8996%
DPP8 activity [%] (DPP8 [4]; c 2500 nM): 6.46% and 6.6893% and 8.361%
DPP8 activity [%] (DPP8 [4]; c 3125 nM): 13.5787% and 24.1011% and 12.0301%
DPP8 activity [%] (DPP8 [4]; c 5000 nM): 1.65% and 1.018% and 2.196%
DPP8 activity [%] (DPP8 [4]; c 6250 nM): 4.899% and 5.3654% and 4.34%
DPP8 activity [%] (DPP8 [4]; c 10000 nM): 0.2086% and 0.07371% and -0.1898%
DPP8 activity [%] (DPP8 [4]; c 25000 nM): 1.765% and 1.4465% and 2.043%
DPP8 activity [%] (DPP8 [4]; c 50000 nM): 2.554% and 1.757% and 1.4548%
DPP8 activity [%] (DPP8 [4]; c 100000 nM): 1.577% and 1.418% and 1.083%
potency relative to alkyl compound 5 (DPP8 [4]; fold more potent inhibitor): about 20 fold
IC50 (DPP4 [5]; GP-AMC 250 µM, 10 nM enzyme, 45 min pre-incubation at 30 °C, read-out: IC50 DPP4): 2.99 ± 0.97 µM
DPP4 activity [%] (DPP4 [5]; c 1562.5 nM): 65.3186% and 69.0903% and 69.4857%
DPP4 activity [%] (DPP4 [5]; c 3125 nM): 56.1551% and 36.739%
DPP4 activity [%] (DPP4 [5]; c 6250 nM): 16.7655% and 22.4037% and 25.1515%
DPP4 activity [%] (DPP4 [5]; c 25000 nM): 0.4601% and 0.7453% and 0.687%
DPP4 activity [%] (DPP4 [5]; c 50000 nM): 0.1815% and 0.2139% and 0.1037%
DPP4 activity [%] (DPP4 [5]; c 100000 nM): 0.1102% and 0.02592% and 0.006479%
Log2-fold change (9/DMSO) [6]: 0.6761
Log2-fold change (9/DMSO) [7]: 1.065
Log2-fold change (9/DMSO) [8]: -0.08905
Log2-fold change (9/DMSO) [9]: -1.46
Log2-fold change (9/DMSO) [10]: 0.4985
kapp (DPP4 [11]; DPP4): 481.66 M⁻¹ s⁻¹
kinact best fit (DPP4 [11]; DPP4): 0.005372 s⁻¹
kobs (DPP4 [11]; DPP4, c 6250 nM): 0.002232 s⁻¹
kobs (DPP4 [11]; DPP4, c 25000 nM): 0.003486 s⁻¹
kobs (DPP4 [11]; DPP4, c 50000 nM): 0.004579 s⁻¹
KI (inactivation) (DPP4 [11]; DPP4, fit of kobs vs inhibitor concentration, read-out: KI best fit): 11.2 µM
KI (inactivation) (DPP4 [11]; DPP4, read-out: KI best fit): 11.2 µM
kinact DPP4 (DPP4 [11]; [12]): 0.00537 ± 0.00033 s⁻¹
KI (inactivation) (DPP4 [11]; irreversible inhibition, fit of kobs vs inhibitor concentration, read-out: KI DPP4): 11.2 µM
kapp DPP4 (DPP4 [11]; ratio kinact/KI): 482 M⁻¹ s⁻¹
